From patent US7064120B2, “Tricyclic pyridyl carboxamides and derivatives thereof tocolytic oxytocin receptor antagonists” (Wyeth, priority 2001, dated 2006) come the findings set out here.

T1 sequence (P30518 whole entry): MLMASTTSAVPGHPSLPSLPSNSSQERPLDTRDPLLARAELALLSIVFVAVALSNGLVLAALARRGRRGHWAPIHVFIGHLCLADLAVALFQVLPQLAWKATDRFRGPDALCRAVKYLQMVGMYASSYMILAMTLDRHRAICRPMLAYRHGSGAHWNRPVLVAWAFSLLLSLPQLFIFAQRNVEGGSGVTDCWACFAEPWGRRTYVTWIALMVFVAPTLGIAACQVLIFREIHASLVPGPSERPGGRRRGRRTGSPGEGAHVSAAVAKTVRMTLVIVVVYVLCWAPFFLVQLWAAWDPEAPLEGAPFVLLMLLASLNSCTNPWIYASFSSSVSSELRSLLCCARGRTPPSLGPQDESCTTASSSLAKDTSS

This test addresses T1, human vasopressin V2 receptor subtype (Homo sapiens, UniProt P30518).
T1 construct: host or cells: CHO cells, stably transfected (pZeoSV vector)
Nature of the test: Vasopressin binding in CHO cell membranes expressing human vasopressin V2 subtype receptors ([3H]arginine vasopressin radioligand binding). Particulars: 100 nM. The procedure: Vasopressin Binding in Chinese Hamster Ovary Cell Membranes Expressing Human Vasopressin V2 Subtype Receptors
Chinese Hamster Ovary (CHO) cells stably transfected with the human V2 subtype receptors were obtained from M. Thibonnier, Case Western Reserve University School of Medicine, Cleveland, Ohio.
The trypsin is removed by aspiration and the cells dislodged by tapping. Cell Culture medium (e.g. 30 mL for 1:30 split) is immediately added and mixed well to inactivate trypsin. 1 mL of detached cells is added to new culture flasks containing fresh Cell Culture medium (e.g. into 25 mL per T-150 flask), and mixed gently. The cells are incubated at 37° C. in 5% CO2. The medium is changed at 3 to 4 day interval (or as appropriate). […] All steps are done under sterile conditions.
The cells are washed twice gently with Hank's Balanced Salt solution (e.g. use 10 mL per T-150 flask). […] The contents are transferred to centrifuge tubes (50 mL) kept in ice bath. All subsequent steps are done at 4° C. The tubes are centrifuged at 300×g for 15 min (1380 rpm on SORVAL, Model RT6000D, using the rotor for 50 mL tubes). The supernatant is discarded and the cells suspended in homogenizing buffer(10 mM Tris-HCl containing 0.25 M sucrose and 1 mM EDTA, pH 7.4) ensuring that the volume of the buffer is about ten times the volume of the cell pellet. The cells are pooled into a centrifuge tube (50 mL) and homogenized with Polytron at setting 6 for 10 sec. The homogenate is transferred into a Potter-Elvjehm homogenizer and homogenized with 3 strokes. The homogenate is centrifuged at 1500×g for 60 min at 4° C. (3100 rpm using SORVAL, model RT6000D, using the rotor for 50 mL tubes). The pellet is discarded. The supernatant is centrifuged at 100,000×g for 60 min. at 4° C. (Beckman L8-80M ultracentrifuge; spin at 37,500 rpm with rotor type 70 Ti for 50 mL tubes; 38,000 rpm with type 80Ti for 15 mL tubes; or 35,800 rpm with rotor type 45Ti). The supernantant is discarded and the pellet suspended in 3 to 4 mL of Tris buffer (50 mM TRIS-HCl, pH 7.4). The protein content is estimated by the Bradford or Lowry method. The volume of the membrane suspension is adjusted with the membrane buffer (50 mM Tris-HCl containing 0.1% BSA and 0.1 mM PMSF) to give 3.0 mg/mL (or as appropriate) of protein. The membranes are aliquoted and stored at −70° C.
In wells of a 96-well format microtiter plate, is added 90, 110 or 130 μL (to make up a final volume of 200 μL) of assay buffer containing 50 mM of Tris-HCl (pH 7.4), […], 1 mg % aprotinin, 1 mg % leupeptin, 2 mg % 1,10-phenanthroline, 10 mg % trypsin inhibitor, and 0.1 mM PMSF. The inhibitors are added on the day of the experiment. The components are mixed at room temperature, and then kept in ice bath following adjustment of the pH to 7.4. […] For vasopressin and other peptide ligands 20 μL of 50% DMSO is added and the assay buffer volume is adjusted accordingly. To each well is added 50 μL of frozen membrane suspension thawed immediately prior to use and diluted in assay buffer to the required concentration (equivalent to 25 to 50 μg of protein/well as needed). 20 μL of 8 nM [^3H]arginine vasopressin ligand in the assay buffer, prepared just before use is added and incubated at room temperature for 60 min. shaking the plate on a mechanical shaker for the first 15 min. The incubation is stopped by rapid filtration of the plate contents followed by wash with ice-cold buffer (50 mM Tris-HCl, pH 7.4) using a cell harvester (Tomtek and Printed filtermat-B filter paper). The filter paper is thoroughly dried (7–12 min. in a microwave oven) and impregnated with MeltiLex B/H melt-on scintillation wax sheets and the radioactivity counted in a betaplate scintillation counter.
Binding data is either reported as percent inhibition at a certain concentration or if an IC50 was calculated, as a nanomolar concentration.
In the case of `COc1cccc(-c2cc(OC)c(C(=O)N3Cc4ccc(C(=O)NCc5cccnc5)n4Cc4ccccc43)cc2Cl)c1` [Example 43, 10-[(6-Chloro-3,3′-dimethoxy-[1,1′-biphenyl]-4-yl)carbonyl]-N-(3-pyridinylmethyl)-10,11-dihydro-5H-pyrrolo[2,1-c][1,4]benzodiazepine-3-carboxamide], the inhibition at 0.1 µM amounted to 7%.
The compound `COc1cc(C(=O)N2Cc3ccc(C(=O)NCc4cccnc4)n3Cc3ccccc32)ccc1-c1cccc2ccccc12` [Example 44, 10-[3-Methoxy-4-(naphthalen-1-yl)benzoyl]-N-(3-pyridinylmethyl)-10,11-dihydro-5H-pyrrolo[2,1-c][1,4]benzodiazepine-3-carboxamide] gave an inhibition at 0.1 µM of 31%.
Still for that read-out and setting: the value for `COc1ccccc1-c1ccc(C(=O)N2Cc3ccc(C(=O)NCc4cccnc4)n3Cc3ccccc32)cc1OC` [Example 45, 10-[(2,2′-Dimethoxy-[1,1′-biphenyl]-4-yl)carbonyl]-N-(3-pyridinylmethyl)-10,11-dihydro-5H-pyrrolo[2,1-c][1,4]benzodiazepine-3-carboxamide] was 19%; that for `COc1cccc(-c2ccc(C(=O)N3Cc4ccc(C(=O)NCc5cccnc5)n4Cc4ccccc43)cc2OC)c1` [Example 46, 10-[(2,3′-Dimethoxy-[1,1′-biphenyl]-4-yl)carbonyl]-N-(3-pyridinylmethyl)-10,11-dihydro-5H-pyrrolo[2,1-c][1,4]benzodiazepine-3-carboxamide] was 8%.
Still for that read-out and setting: for `O=C(NCc1cccnc1)c1ccc2n1Cc1ccccc1N(C(=O)c1ccc(-c3cccc4ccccc34)cc1Cl)C2` [Example 47, 10-[2-Chloro-4-(naphthalen-1-yl)benzoyl]-N-(3-pyridinylmethyl)-10,11-dihydro-5H-pyrrolo[2,1-c][1,4]benzodiazepine-3-carboxamide] the value was 6%.
In turn, `Cc1cc(C(=O)N2Cc3ccc(C(=O)NCc4cccnc4)n3Cc3ccccc32)ccc1-c1ccccc1C(F)(F)F` [Example 48, 10-{[2-Methyl-2′-trifluoromethyl-[1,1′-biphenyl]-4-yl]carbonyl}-N-(3-pyridinylmethyl)-10,11-dihydro-5H-pyrrolo[2,1-c][1,4]benzodiazepine-3-carboxamide] returned an inhibition at 0.1 µM of 9%.
Still for that read-out and setting: the value for `COc1ccccc1-c1ccc(C(=O)N2Cc3ccc(C(=O)NCCc4ccccn4)n3Cc3ccccc32)cc1C` [Example 49, 10-[(2′-Methoxy-2-methyl-[1,1′-biphenyl]-4-yl)carbonyl]-N-[2-(2-pyridinyl)ethyl]-10,11-dihydro-5H-pyrrolo[2,1-c][1,4]benzodiazepine-3-carboxamide] was 26%.
Same read-out and setting: for `Cc1ccccc1-c1ccc(C(=O)N2Cc3ccc(C(=O)NCCc4ccccn4)n3Cc3ccccc32)cc1C` [Example 50, 10-[(2,2′-Dimethyl-[1,1′-biphenyl]-4-yl)carbonyl]-N-[2-(2-pyridinyl)ethyl]-10,11-dihydro-5H-pyrrolo[2,1-c][1,4]benzodiazepine-3-carboxamide] the value was 17%.
The same measure, in the same setting: the value for `COc1cccc(-c2ccc(C(=O)N3Cc4ccc(C(=O)NCCc5ccccn5)n4Cc4ccccc43)cc2C)c1` [Example 51, 10-[(3′-Methoxy-2-methyl-[1,1′-biphenyl]-4-yl)carbonyl]-N-[2-(2-pyridinyl)ethyl]-10,11-dihydro-5H-pyrrolo[2,1-c][1,4]benzodiazepine-3-carboxamide] was 16%; that for `COc1ccccc1-c1ccc(C(=O)N2Cc3ccc(C(=O)NCCc4ccccn4)n3Cc3ccccc32)cc1` [Example 52, 10-[(2′-Methoxy-[1,1′-biphenyl]-4-yl)carbonyl]-N-[2-(2-pyridinyl)ethyl]-10,11-dihydro-5H-pyrrolo[2,1-c][1,4]benzodiazepine-3-carboxamide] was 8%.
For `Cc1ccccc1-c1ccc(C(=O)N2Cc3ccc(C(=O)NCCc4ccccn4)n3Cc3ccccc32)cc1` [Example 53, 10-[(2′-Methyl-[1,1′-biphenyl]-4-yl)carbonyl]-N-[2-(2-pyridinyl)ethyl]-10,11-dihydro-5H-pyrrolo[2,1-c][1,4]benzodiazepine-3-carboxamide], the inhibition at 0.1 µM was 13%.
Compound `COc1cc(C(=O)N2Cc3ccc(C(=O)NCCc4ccccn4)n3Cc3ccccc32)ccc1-c1ccccc1C` [Example 54, 10-[(2-Methoxy-2′-methyl-[1,1′-biphenyl]-4-yl)carbonyl]-N-[2-(2-pyridinyl)ethyl]-10,11-dihydro-5H-pyrrolo[2,1-c][1,4]benzodiazepine-3-carboxamide] came in with an inhibition at 0.1 µM of 18%.
The same measure, in the same setting: the value for `COc1cc(-c2ccccc2C)c(Cl)cc1C(=O)N1Cc2ccc(C(=O)NCCc3ccccn3)n2Cc2ccccc21` [Example 55, 10-[(6-Chloro-3-methoxy-2′-methyl-[1,1′-biphenyl]-4-yl)carbonyl]-N-[2-(2-pyridinyl)ethyl]-10,11-dihydro-5H-pyrrolo[2,1-c][1,4]benzodiazepine-3-carboxamide] was 5%.
The same measure, in the same setting: for `COc1cccc(-c2cc(OC)c(C(=O)N3Cc4ccc(C(=O)NCCc5ccccn5)n4Cc4ccccc43)cc2Cl)c1` [Example 56, 10-[(6-Chloro-3,3′-dimethoxy-[1,1′-biphenyl]-4-yl)carbonyl]-N-[2-(2-pyridinyl)ethyl]-10,11-dihydro-5H-pyrrolo[2,1-c][1,4]benzodiazepine-3-carboxamide] the value was 11%.
Compound `COc1cc(C(=O)N2Cc3ccc(C(=O)NCCc4ccccn4)n3Cc3ccccc32)ccc1-c1cccc2ccccc12` [Example 57, 10-[3-Methoxy-4-(naphthalen-1-yl)benzoyl]-N-[2-(2-pyridinyl)ethyl]-10,11-dihydro-5H-pyrrolo[2,1-c][1,4]benzodiazepine-3-carboxamide] yielded an inhibition at 0.1 µM of 33%.
The same measure, in the same setting: for `COc1ccccc1-c1ccc(C(=O)N2Cc3ccc(C(=O)NCCc4ccccn4)n3Cc3ccccc32)cc1OC` [Example 58, 10-[(2,2′-Dimethoxy-[1,1′-biphenyl]-4-yl)carbonyl]-N-[2-(2-pyridinyl)ethyl]-10,11-dihydro-5H-pyrrolo[2,1-c][1,4]benzodiazepine-3-carboxamide] the value was 22%; for `COc1cccc(-c2ccc(C(=O)N3Cc4ccc(C(=O)NCCc5ccccn5)n4Cc4ccccc43)cc2OC)c1` [Example 59, 10-[(2,3′-Dimethoxy-[1,1′-biphenyl]-4-yl)carbonyl]-N-[2-(2-pyridinyl)ethyl]-10,11-dihydro-5H-pyrrolo[2,1-c][1,4]benzodiazepine-3-carboxamide], 4%; for `O=C(NCCc1ccccn1)c1ccc2n1Cc1ccccc1N(C(=O)c1ccc(-c3cccc4ccccc34)cc1Cl)C2` [Example 60, 10-[2-Chloro-4-(naphthalen-1-yl)benzoyl]-N-[2-(2-pyridinyl)ethyl]-10,11-dihydro-5H-pyrrolo[2,1-c][1,4]benzodiazepine-3-carboxamide], 15%.
As for `Cc1cc(C(=O)N2Cc3ccc(C(=O)NCCc4ccccn4)n3Cc3ccccc32)ccc1-c1ccccc1C(F)(F)F` [Example 61, 10-{[2-Methyl-2′-trifluoromethyl=[1,1′-biphenyl]-4-yl]carbonyl}-N-[2-(2-pyridinyl)ethyl]-10,11-dihydro-5H-pyrrolo[2,1-c][1,4]benzodiazepine-3-carboxamide], the “V2 % inhibition @ 100 nM” value was found to be 14%.
